Legend:
[1] = Solubility of paroxetine salts in water; format: physicochemical
[2] = prior-art statement; cited from earlier work

Question: For “(−)-trans-4R-(4′-fluorophenyl)-3S-[(3′,4′-methylenedioxyphenyl)oxymethyl]piperidine acetate [paroxetine acetate]”, which solubility ([1]; purified water, room temperature, purified paroxetine acetate) is on record?
Answer: at least 1000 mg per one ml

Question: What about the “solubility in water (in words)” value ([1]; water) of the same substance?
Answer: highly soluble in water

Question: What about the “water solubility (in words, background)” value [2] of the same substance?
Answer: excellent water solubility profile
